Usually IC50 stands for the concentration needed to halve the response being measured.

This assay deals with T1, Peroxisome proliferator-activated receptor alpha (Homo sapiens, UniProt Q07869).
T1 sequence (Q07869 whole entry): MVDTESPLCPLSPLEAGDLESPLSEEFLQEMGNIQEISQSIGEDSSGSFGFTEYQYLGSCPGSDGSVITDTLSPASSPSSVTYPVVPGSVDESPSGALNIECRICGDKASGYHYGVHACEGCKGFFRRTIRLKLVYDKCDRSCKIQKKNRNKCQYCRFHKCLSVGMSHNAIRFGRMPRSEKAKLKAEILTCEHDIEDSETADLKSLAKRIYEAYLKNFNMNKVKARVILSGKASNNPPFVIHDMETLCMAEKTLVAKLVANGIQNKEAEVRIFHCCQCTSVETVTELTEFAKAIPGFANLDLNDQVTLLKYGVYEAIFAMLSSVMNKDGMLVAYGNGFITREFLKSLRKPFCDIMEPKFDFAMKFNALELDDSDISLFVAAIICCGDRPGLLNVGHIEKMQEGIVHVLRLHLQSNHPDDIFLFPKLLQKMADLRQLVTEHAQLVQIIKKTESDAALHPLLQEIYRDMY
Nature of the assay: Inhibition of PPARalpha receptor.

SMILES strings stand for the structures.

As to `CCC(=O)NC[C@H](Cc1ccc(OCCc2nc(-c3ccccc3)oc2C)cc1)N/C(C)=C\C(=O)c1ccc(C(F)(F)F)cc1`, 0.24 µM corresponded to half-maximal inhibition (IC50).

These data come from ChEMBL document CHEMBL1138491, “An innovative method to study target protein-drug interactions by mass spectrometry” (J Med Chem, 2009).
